Assay results: US20130302282A1, “Inhibitors of Hepatitis C Virus” (priority 2010, published 2013)
pEC50: −log10 of the molar value. Like-named read-outs stand apart in the source and are kept apart here.

System: 1b_Huh-Luc/Neo-ET cell line (bicistronic genotype 1b replicon in Huh 7 cells)
Test: HCV 1b replicon assay, luciferase readout
Assay type: cell-based, HCV genotype 1b
Conditions: Hepatitis C virus
Procedure: Biological activity of the compounds of the invention was determined using an HCV replicon assay. The 1b_Huh-Luc/Neo-ET cell line persistently expressing a bicistronic genotype 1b replicon in Huh 7 cells was obtained from ReBLikon GMBH. This cell line was used to test compound inhibition using luciferase enzyme activity readout as a measurement of compound inhibition of replicon levels.
On Day 1 (the day after plating), each compound is added in triplicate to the cells. Plates incubated for 72 […] prior to running the luciferase assay. Enzyme activity was measured using a Bright-Glo Kit (cat. number E2620) manufactured by Promega Corporation. The following equation was used to generate a percent control value for each compound.
%Control=(Average Compound Value/Average Control)*100
The EC50 value was determined using GraphPad Prism and the following equation:
Y=Bottom+(Top−Bottom)/(1+10̂((LogIC50−X)*HillSlope))
EC50 values of compounds are repeated several times in the replicon assay.

[1] = Huh-7, class symbol, HCV genotype 1b replicon, read-out: Inhibition of HCV genotype 1b replicon
[2] = Huh-7, 1b_Huh-Luc/Neo-ET cell line, read-out: EC50, half-maximal inhibition of HCV 1b replication

## CNC(=O)c1c(-c2ccc(F)cc2)oc2cc3[nH]ccc3cc12 [Compound B25]
[1]
  pEC50: < 6.00

## CNC(=O)c1c(-c2ccc(F)cc2)nc2cc3c(cn12)C(C)=CCCO3 [Compound B30]
[1]
  pEC50: < 6.00

## C=C1CCCN(S(C)(=O)=O)c2cc3oc(-c4ccc(Oc5ccc(F)cc5)cc4)c(C(=O)NC)c3cc21 [Compound B46]
[1]
  pEC50: 6.00 to 7.00

## CNC(=O)c1c(-c2ccc(Oc3ccc(F)cc3)cc2)oc2cc3c(cc12)C(C)CCCN3S(C)(=O)=O (centres unmarked) [Compound B47]
[2]
  pEC50: 7.00 to 8.00
[1]
  pEC50: 7.00 to 8.00

## CNC(=O)c1c(-c2ccc(Oc3ccc(F)cc3)cc2)oc2cc3c(cc12)C(C)=CCCN3S(C)(=O)=O [Compound B48]
[2]
  pEC50: 7.00 to 8.00
[1]
  pEC50: 7.00 to 8.00

## CNC(=O)c1c(-c2ccc(F)cc2F)oc2cc3c(cc12)C(=O)CCCN3S(C)(=O)=O [Compound B49]
[1]
  pEC50: 6.00 to 7.00

## CNC(=O)c1c(-c2ccc(F)cc2)nn2cc3c(cc12)C(C)CCCN3S(C)(=O)=O (centres unmarked) [Compound B50]
[1]
  pEC50: 6.00 to 7.00

## CS(=O)(=O)N1CCCCc2cc3c(C#N)c(-c4ccc(F)cc4)oc3cc21 [Compound B53]
[1]
  pEC50: < 6.00

## C=CCN1CCN(S(C)(=O)=O)c2cc3oc(-c4ccc(F)cc4)c(C(=O)NC)c3cc2C1C (centres unmarked) [Compound B54]
[2]
  pEC50: 7.00 to 8.00
[1]
  pEC50: 7.00 to 8.00

## C=CCN1C(=O)CN(S(C)(=O)=O)c2cc3oc(-c4ccc(F)cc4)c(C(=O)NC)c3cc2C1C (centres unmarked) [Compound B55]
[2]
  pEC50: 7.00 to 8.00
[1]
  pEC50: 7.00 to 8.00

## CNC(=O)c1c(-c2ccc(F)cc2)nc2cc3c(cn12)C(C)CCCN3S(C)(=O)=O (centres unmarked) [Compound B56]
[1]
  pEC50: 6.00 to 7.00

## CNC(=O)c1c(-c2ccc(F)cc2)oc2cc3c(cc12)C(C)NCCN3S(C)(=O)=O (centres unmarked) [Compound B57]
[2]
  pEC50: 7.00 to 8.00
[1]
  pEC50: 7.00 to 8.00

## CS(=O)(=O)N1CCCCc2cc3c(-c4ncn[nH]4)c(-c4ccc(F)cc4)oc3cc21 [Compound B58]
[1]
  pEC50: 6.00 to 7.00

## CN(O)C(=O)c1c(-c2ccc(F)cc2)oc2cc3c(cc12)CCCCN3S(C)(=O)=O [Compound B59]
[1]
  pEC50: 6.00 to 7.00

## C=C1CCCN(S(C)(=O)=O)c2cc3oc(-c4ccc(F)cc4OC)c(C(=O)NC)c3cc21 [Compound B83]
[1]
  pEC50: < 6.00

## CNC(=O)c1c(-c2ccc(F)cc2OC)oc2cc3c(cc12)C(C)CCCN3S(C)(=O)=O (centres unmarked) [Compound B84]
[2]
  pEC50: 7.00 to 8.00
[1]
  pEC50: 7.00 to 8.00

## CNC(=O)c1c(-c2ccc(F)cc2)oc2cc3c(cc12)CCCCN3C(=O)OC [Compound B87]
[1]
  pEC50: 6.00 to 7.00

## CNC(=O)c1c(-c2ccc(F)cc2)oc2cc3c(cc12)C(O)CCCCN3S(C)(=O)=O (centres unmarked) [Compound B88]
[1]
  pEC50: 6.00 to 7.00

## CNC(=O)c1c(-c2ccc(Br)cc2)nn2cc3c(cc12)C(C)CCCN3S(C)(=O)=O (centres unmarked) [Compound B89]
[1]
  pEC50: 7.00 to 8.00

## CNC(=O)c1c(-c2ccc(Oc3ccccc3)cc2)nn2cc3c(cc12)C(C)CCCN3S(C)(=O)=O (centres unmarked) [Compound B90]
[1]
  pEC50: 6.00 to 7.00

## CNC(=O)c1c(-c2ccc(Oc3ccccc3Cl)cc2)nn2cc3c(cc12)C(C)CCCN3S(C)(=O)=O (centres unmarked) [Compound B91]
[1]
  pEC50: 6.00 to 7.00

## CNC(=O)c1c(-c2ccc(F)cc2)oc2cc3c(cc12)CC(C)CCN3S(C)(=O)=O (centres unmarked) [Compound B92]
[2]
  pEC50: ≥ 8.00
[1]
  pEC50: > 8.00

## CNC(=O)c1c(-c2ccc(F)cc2)oc2cc3c(cc12)CCCCN3S(=O)(=O)C1CC1 [Compound B93]
[2]
  pEC50: 7.00 to 8.00
[1]
  pEC50: 7.00 to 8.00

## CNC(=O)c1c(-c2ccc(F)cc2)oc2cc3c(cc12)C(C)CCCCN3S(C)(=O)=O (centres unmarked) [Compound B94]
[2]
  pEC50: ≥ 8.00
[1]
  pEC50: > 8.00

## CNC(=O)c1c(-c2ccc(Oc3ccccc3F)cc2)nn2cc3c(cc12)C(C)CCCN3S(C)(=O)=O (centres unmarked) [Compound B95]
[1]
  pEC50: 6.00 to 7.00

## CNC(=O)c1c(-c2ccc(Oc3cccc(F)c3)cc2)nn2cc3c(cc12)C(C)CCCN3S(C)(=O)=O (centres unmarked) [Compound B96]
[1]
  pEC50: 7.00 to 8.00

## CNC(=O)c1c(-c2ccc(F)cc2)oc2cc3c(cc12)C(C)N(CC(F)(F)F)CCN3S(C)(=O)=O (centres unmarked) [Compound B107]
[2]
  pEC50: ≥ 8.00
[1]
  pEC50: > 8.00

## CNC(=O)c1c(-c2ccc(F)cc2)oc2cc3c(cc12)C(O)C(C)(C)CCN3S(C)(=O)=O (centres unmarked) [Compound B123]
[2]
  pEC50: 7.00 to 8.00
[1]
  pEC50: 7.00 to 8.00

## CNC(=O)c1c(-c2ccc(F)cc2)oc2cc3c(cc12)C(C)N(C1CC1)CCN3S(C)(=O)=O (centres unmarked) [Compound B124]
[2]
  pEC50: 7.00 to 8.00
[1]
  pEC50: 7.00 to 8.00

## CNC(=O)c1c(-c2ccc(F)cc2)nn2cc3c(cc12)CCCCCN3S(C)(=O)=O [Compound B125]
[1]
  pEC50: 7.00 to 8.00

## [2H]C([2H])([2H])NC(=O)c1c(-c2ccc(F)cc2)nn2cc3c(cc12)CCCCCN3S(C)(=O)=O [Compound B126]
[1]
  pEC50: 7.00 to 8.00

## CNC(=O)c1c(-c2ccc(F)cc2)oc2cc3c(cc12)C1CC1CCN3S(C)(=O)=O (centres unmarked) [Compound B127]
[2]
  pEC50: ≥ 8.00
[1]
  pEC50: > 8.00

## [2H]C([2H])([2H])NC(=O)c1c(-c2ccc(F)cc2)oc2cc3c(cc12)C1CC1CCN3S(C)(=O)=O (centres unmarked) [Compound B128]
[2]
  pEC50: ≥ 8.00
[1]
  pEC50: > 8.00

## CS(=O)(=O)N1CCCCCc2cc3c(-c4ncc[nH]4)c(-c4ccc(F)cc4)nn3cc21 [Compound B129]
[1]
  pEC50: 7.00 to 8.00

## CS(=O)(=O)N1CCCCCc2cc3c(-c4ncc[nH]4)c(-c4ccc(F)cc4)oc3cc21 [Compound B130]
[2]
  pEC50: ≥ 8.00
[1]
  pEC50: > 8.00

## CNC(=O)c1c(-c2ccc(F)cc2)oc2cc3c(cc12)C(C)N(C(=O)c1ccc(F)cc1)CCN3S(C)(=O)=O (centres unmarked) [Compound B134]
[2]
  pEC50: 7.00 to 8.00
[1]
  pEC50: 7.00 to 8.00

## CNC(=O)c1c(-c2ccc(Oc3ccc(F)cc3)cc2)oc2cc3c(cc12)C=CCCN3S(C)(=O)=O [Compound B135]
[1]
  pEC50: 6.00 to 7.00

## CNC(=O)c1c(-c2ccc(Oc3ccc(F)cc3)cc2)oc2cc3c(cc12)CCCCN3S(C)(=O)=O [Compound B136]
[2]
  pEC50: 7.00 to 8.00
[1]
  pEC50: 7.00 to 8.00

## CNC(=O)c1c(-c2ccc(F)cc2)oc2cc3c(cc12)C(C)n1nncc1CN3S(C)(=O)=O (centres unmarked) [Compound B138]
[2]
  pEC50: ≥ 8.00
[1]
  pEC50: > 8.00

## CNC(=O)c1c(-c2ccc(F)cc2)oc2cc3c(cc12)C(C)N(CC(F)F)CCN3S(C)(=O)=O (centres unmarked) [Compound B139]
[2]
  pEC50: ≥ 8.00
[1]
  pEC50: > 8.00

## CNC(=O)c1c(-c2ccc(F)cc2)oc2cc3c(cc12)C(C)N(Cc1ccc(F)cc1)CCN3S(C)(=O)=O (centres unmarked) [Compound B142]
[2]
  pEC50: 7.00 to 8.00
[1]
  pEC50: 7.00 to 8.00

## CCN1CCN(S(C)(=O)=O)c2cc3oc(-c4ccc(F)cc4)c(C(=O)NC)c3cc2C1C (centres unmarked) [Compound B144]
[2]
  pEC50: 7.00 to 8.00
[1]
  pEC50: 7.00 to 8.00

## CNC(=O)c1c(-c2ccc(F)cc2)oc2cc3c(cc12)C(C)N(CCF)CCN3S(C)(=O)=O (centres unmarked) [Compound B147]
[2]
  pEC50: 7.00 to 8.00
[1]
  pEC50: 7.00 to 8.00

## CNC(=O)c1c(-c2ccc(F)cc2)oc2cc3c(cc12)C(C(F)(F)F)OCCN3S(C)(=O)=O (centres unmarked) [Compound B148]
[2]
  pEC50: ≥ 8.00
[1]
  pEC50: > 8.00

## CNC(=O)c1c(-c2ccc(F)cc2)oc2cc3c(cc12)C(C)N(CC(=O)O)CCN3S(C)(=O)=O (centres unmarked) [Compound B149]
[1]
  pEC50: < 6.00

## CNC(=O)c1c(-c2ccc(F)cc2)oc2cc3c(cc12)C(C)N(S(C)(=O)=O)CCN3S(C)(=O)=O (centres unmarked) [Compound B157]
[2]
  pEC50: 7.00 to 8.00
[1]
  pEC50: 7.00 to 8.00

## CNC(=O)c1c(-c2ccc(Oc3ccc(F)cc3)cc2)oc2cc3c(cc12)C(C)n1nncc1CN3S(C)(=O)=O (centres unmarked) [Compound B158]
[2]
  pEC50: ≥ 8.00
[1]
  pEC50: > 8.00

## CNC(=O)c1c(-c2ccc(F)cc2)oc2cc3c(cc12)C(C)N([C@H](C)c1ccc(F)cc1)CCN3S(C)(=O)=O (some centres unmarked) [Compound B159]
[2]
  pEC50: 7.00 to 8.00
[1]
  pEC50: 7.00 to 8.00
